According to patent US20230014907A1, “INHIBITORS OF APOL1 AND METHODS OF USING SAME” (Vertex Pharmaceuticals Incorporated, priority 2020, published 2023):

What follows are molecules tested against T1, G1 APOL1 (Homo sapiens, UniProt O14791, I384M/S342G) (assay: Acute APOL1 Thallium Assay with Inducible Stable Clones of HEK 293 Cells). Details: HEK 293 inducible stable clones, G1 APOL1; read-out: Thallium Assay (IC50).
T1 construct: expressed in transfected cells
T1 sequence (O14791 28-398 S342G/I384M): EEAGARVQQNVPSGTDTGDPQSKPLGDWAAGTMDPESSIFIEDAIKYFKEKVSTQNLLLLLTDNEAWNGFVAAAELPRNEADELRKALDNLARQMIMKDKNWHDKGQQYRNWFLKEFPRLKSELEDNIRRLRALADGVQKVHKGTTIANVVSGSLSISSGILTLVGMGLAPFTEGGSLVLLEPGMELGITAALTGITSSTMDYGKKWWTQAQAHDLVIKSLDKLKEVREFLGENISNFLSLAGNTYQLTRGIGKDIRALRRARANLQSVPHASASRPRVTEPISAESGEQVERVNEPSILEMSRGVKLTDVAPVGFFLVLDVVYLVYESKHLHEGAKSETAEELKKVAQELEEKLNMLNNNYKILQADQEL
Format: cell-based
Summary of the method: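 HEK293 T-Rex cells with a stable tetracycline-inducible G1 APOL1 construct (clone DC3.25) were induced with tetracycline at plating, 26000 cells per well, then incubated at 37° C. They were loaded with an AM-ester thallium-sensitive dye and stimulated with Tl+. The fluorescence rise measured Tl+ influx through APOL1 pores.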

Row | SMILES | IC50 [nM]
1 | O=C1CCC(C(=O)NCCc2c(-c3ccc(F)cc3)[nH]c3c(F)cc(F)cc23)CN1 (centres unmarked) [Compound 332] | > 1000
2 | O=C(NCCc1c(-c2ccc(F)cc2)[nH]c2c(F)cc(F)cc12)NCC1CCCO1 (centres unmarked) [Compound 297] | > 1000
3 | O=C1CCC[C@@H](C(=O)NCCc2c(-c3ccc(F)cc3)[nH]c3c(F)cc(F)cc23)N1 [Compound 329] | > 1000
4 | COc1ccc2[nH]c(-c3ccc(F)cc3)c(CCNC(=O)OC(C)(C)C)c2c1 [Compound 430, tert-butyl N-[2-[2-(4-fluorophenyl)-5-methoxy-1H-indol-3-yl]ethyl]carbamate] | > 1000
5 | NC(=O)CC(=O)NCCc1c(-c2ccc(F)cc2)[nH]c2c(F)cc(F)cc12 [Compound 358] | > 1000
6 | CC(C)(C)OC(=O)N[C@H](CO)C(=O)NCCc1c(-c2ccc(F)cc2)[nH]c2c(F)cc(F)cc12 [Compound 305, tert-butyl N-[(1R)-2-[2-[5,7-difluoro-2-(4-fluorophenyl)-1H-indol-3-yl]ethylamino]-1-(hydroxymethyl)-2-oxo-ethyl]carbamate] | > 1000
7 | O=C(Nc1cc(=O)[nH][nH]1)OCCc1c(-c2ccc(F)cc2)[nH]c2c(F)cc(F)cc12 [Compound 488] | > 1000
8 | C[C@H](NC(=O)NCCc1c(-c2ccc(F)cc2)[nH]c2c(F)cc(F)cc12)C(C)(C)O [Compound 268] | > 1000
9 | NCCc1c(-c2ccc(F)cc2)[nH]c2c(F)cc(F)cc12 [Compound 432, 2-[5,7-difluoro-2-(4-fluorophenyl)-1H-indol-3-yl]ethanamine] | > 1000
10 | O=C1C[C@H](NC(=O)CCCc2c(-c3ccc(F)cc3)[nH]c3c(F)cc(F)cc23)C(=O)N1 [Compound 245] | > 1000
11 | O=C(CCCc1c(-c2ccc(F)cc2)[nH]c2c(F)cc(F)cc12)N1C[C@@H](O)[C@H](O)C1 [Compound 248] | > 1000
12 | O=C(NCCc1c(-c2ccc(F)cc2)[nH]c2c(F)cc(F)cc12)OCC1(C(=O)O)CC1 [Compound 426, 1-[2-[5,7-difluoro-2-(4-fluorophenyl)-1H-indol-3-yl]ethylcarbamoyloxymethyl]cyclopropanecarboxylic acid] | > 1000
13 | CC(O)CCNC(=O)NCCc1c(-c2ccc(F)cc2)[nH]c2c(F)cc(F)cc12 (centres unmarked) [Compound 278] | > 1000
14 | CC(CC(=O)NCCc1c(-c2ccc(F)cc2)[nH]c2c(F)cc(F)cc12)C(N)=O (racemic) [Compound 335] | > 1000
15 | CCOCCc1c(-c2ccc(F)cc2)[nH]c2c(F)cc(F)cc12 [Compound 503, 3-(2-ethoxyethyl)-5,7-difluoro-2-(4-fluorophenyl)-1H-indole] | > 1000
16 | CC(C)(C)OC(=O)NCC(=O)NCCc1c(-c2ccc(F)cc2)[nH]c2c(F)cc(F)cc12 [Compound 317] | > 1000
17 | O=C(NCCc1c(-c2ccc(F)cc2)[nH]c2c(F)cc(F)cc12)NCC1(O)CCC1 [Compound 275] | > 1000
18 | O=C(NCCc1c(-c2ccc(F)cc2)[nH]c2c(F)cc(F)cc12)NCc1ccoc1 [Compound 299] | > 1000
19 | Cc1occc1C(=O)NCCc1c(-c2ccc(F)cc2)[nH]c2c(F)cc(F)cc12 [Compound 394] | > 1000
20 | O=C(NC[C@@H](O)CO)OCCc1c(-c2ccc(F)cc2)[nH]c2c(F)cc(F)cc12 [Compound 476] | > 1000
21 | CC(C)(O)C#Cc1c(-c2ccc(F)cc2)[nH]c2c(F)cc(F)cc12 [Compound 523, 4-[5,7-difluoro-2-(4-fluorophenyl)-1H-indol-3-yl]-2-methyl-but-3-yn-2-ol] | > 1000
22 | Cn1cc(CNC(=O)CCCc2c(-c3ccc(F)cc3)[nH]c3c(F)cc(F)cc23)cn1 [Compound 254] | > 1000

Continued, values first:

Row | IC50 [nM] | SMILES
23 | > 1000 | CC(C)(C)OC(=O)NC1CCCN(C(=O)CCc2c(-c3ccc(F)cc3)[nH]c3ccc(F)cc23)C1 (centres unmarked) [Compound 66]
24 | > 1000 | Cc1ccc(CNC(=O)CCc2c(-c3ccc(F)cc3)[nH]c3c(F)cc(F)cc23)o1 [Compound 177]
25 | > 1000 | O=C(CCc1c(-c2ccc(F)cc2)[nH]c2c(F)cc(F)cc12)NC1(C(F)(F)F)CC1 [Compound 129]
26 | 250 to 1000 | CC(NC(=O)CCc1c(-c2ccc(F)cc2)[nH]c2c(F)cc(F)cc12)C(F)(F)F (racemic) [Compound 115]
27 | > 1000 | O=C(CCc1c(-c2ccc(F)cc2)[nH]c2ccc(F)cc12)NCC1(O)CCC1 [Compound 64]
28 | 250 to 1000 | CC(=O)NCCCc1c(-c2ccc(F)cc2)[nH]c2c(Cl)cccc12 [Compound 508, N-[3-[7-chloro-2-(4-fluorophenyl)-1H-indol-3-yl]propyl]acetamide]
29 | 250 to 1000 | O=C(NCCc1c(-c2ccc(F)cc2)[nH]c2c(F)cc(F)cc12)C1CCCCC1O (centres unmarked) [Compound 326]
30 | 250 to 1000 | O=C(NCC(O)CO)OCCc1c(-c2ccc(F)cc2)[nH]c2c(F)cc(F)cc12 (centres unmarked) [Compound 468]
31 | > 1000 | O=C(NCCc1c(-c2ccc(F)cc2)[nH]c2c(F)cc(F)cc12)C1CC(O)C1 (centres unmarked) [Compound 348]
32 | > 1000 | O=C(NCc1cccnc1)OCCc1c(-c2ccc(F)cc2)[nH]c2c(F)cc(F)cc12 [Compound 497]
33 | > 1000 | NC(=O)[C@H](CO)NC(=O)CCc1c(-c2ccc(F)cc2)[nH]c2c(F)cc(Cl)cc12 [Compound 206]
34 | > 1000 | O=C(NCCc1c(-c2ccc(F)cc2)[nH]c2c(F)cc(F)cc12)c1ccc[nH]1 [Compound 354]
35 | > 1000 | CC(CO)CNC(=O)NCCc1c(-c2ccc(F)cc2)[nH]c2c(F)cc(F)cc12 (racemic) [Compound 280]
36 | > 1000 | Cn1cc(CNC(=O)CCCc2c(-c3ccc(F)cc3)[nH]c3c(F)cc(F)cc23)nn1 [Compound 251]
37 | < 250 | CC[C@@H](CO)NC(=O)OCCc1c(-c2ccc(F)cc2)[nH]c2c(F)cc(F)cc12 [Compound 446]
38 | 250 to 1000 | O=C(NCCc1c(-c2ccc(F)cc2)[nH]c2c(F)cc(F)cc12)C1(O)CC1 [Compound 360]
39 | 250 to 1000 | CNC(=O)CCCc1c(-c2ccc(F)cc2)[nH]c2c(F)cc(F)cc12 [Compound 239, 4-(5,7-difluoro-2-(4-fluorophenyl)-1H-indol-3-yl)-N-methylbutanamide]
40 | 250 to 1000 | O=C(NC[C@H](O)CO)OCCc1c(-c2ccc(F)cc2)[nH]c2c(F)cc(F)cc12 [Compound 470]
41 | 250 to 1000 | NC(=O)C1(C(=O)NCCc2c(-c3ccc(F)cc3)[nH]c3c(F)cc(F)cc23)CC1 [Compound 339]
42 | 250 to 1000 | Cc1cc(F)c2[nH]c(-c3ccc(F)cc3)c(CCC(=O)NC3(CO)CCC3)c2c1 [Compound 216]

The molecules below were run against T2, APOL1 G1 Protein (Homo sapiens, UniProt O14791, I384M/S342G) (assay: Trypanosoma brucei brucei Lysis Assay Using APOL1 Recombinant Protein (AlamarBlue viability)). Details: read-out: Trypanosomal Assay (IC50).
T2 sequence (O14791 28-398 S342G/I384M): T1 sequence (O14791 28-398 S342G/I384M)
Format: cell-based
Source text: Trypanosoma brucei brucei is a blood stream parasite to which human, gorillas and baboon are immune due to the presence of the APOL1 protein in their HDL particles. The protein is uptaken by the parasite via the TbHpHb receptor located in its flagellar pocket and is bonded by the Hpr protein contained in the HDL particles which triggers the receptor endocytosis by the parasite.
Following endocytosis, the formed vesicle containing the HDL particle matures from early to late endosome, and subsequently to lysosome. The concomitant pH change in the lumen of the vesicle triggers the insertion of the APOL1 protein into the membrane of the late endosome/lysosome and hereby triggers lysosomal membrane permeabilization and as a further downstream event, trypanosome lysis. Trypanosoma brucei brucei is sensitive to lysis by all three APOL1 variants (G0, G1, and G2).
The Trypanosoma brucei brucei lysis assay is a lysis assay of the parasite using recombinant APOL1 protein variant followed by a fluorescent detection method of viability by the addition of AlamarBlue reagent to the assay well, a general metabolic redox indicator (AlamarBlue assay).
Briefly, the AlamarBlue active compound, the resazurin, a blue, water soluble, non-toxic and cell permeable molecule, which can be followed by absorbance, is reduced by various metabolic pathways into resorufin, a red compound which can be followed by either absorbance or fluorescence. The assay allows the calculation of the percent viability (percent of living Trypanosomes remaining in each well) at the end of a lysis relative to the untreated condition by interpolation of fluorescent values (FLU) on a standard curve with a known amount of seeded trypanosome/well.
Trypanosoma brucei brucei (ATCC, Cat. No. PRA-382) • Lister 427 VSG 221 bloodstream form.
Thaw/Expansion Media (ATCC Medium 2834 Modified HMI-9 Medium)
Assay Media (No Phenol Red/No FBS): Make on Day of Use
Hypoxanthine Stock (100×)-9 (10×)
Equipment • E1-Clip Tip pipette 12 channel adjustable 2-125 μL, Cat. No. 4672070BT • ThermoFisher MultiDrop 384, Cat. No. 5840300 • Multidrop • Agilent Bravo, Cat. No. G5409A • Bravo • SpectraMax M5
Trypanosoma brucei brucei Culture
Step 2, Day 4 • Centrifuge at 800×g for 5 minutes at room temperature. • Resuspend in 1 mL media. • Make a 1:25 fold dilution (10 μL/240 μL media). • Count on a hemocytometer (after adding parasites). • Let sit for 1-2 minutes for the parasites to settle. • Count should be approximately 100 viable motile parasites/16 grid or approximately 25×10^6 parasites/flask. • Passage the parasites by adding 1×10^6 parasites/T75 flask in 20 mL media. • Passage the parasites by adding 2.33×10^6 parasites/T175 flask in 46.6 mL media. • For every T75 flask should make enough for approximately 1.5×384 well assay plates. • For every T175 flask should make enough for approximately 3.8×384 well assay plates.
Step 3, Day 6 • Centrifuge at 800×g for 5 minutes. • Resuspend in 3 mL assay media (No phenol red, no FBS) per 75 starting flask. • Resuspend in 7 mL assay media (No phenol red, no FBS) per 175 flask • Make a 1:25 fold dilution. • Count by hemocytometer. • Every T75 flask set up should have approximately 75×10^6 parasites/flask (verify doubling time=8.7 hours±1 hour). • Every T175 flask set up should have approximately 175×10^6 parasites/flask (verify doubling time=8.7 hours±1 hour). • Require 46×10^6 parasites per 384 well plate (at 120,000 parasites per well). […]

Row | SMILES | IC50 [nM]
43 | CC(C)(C)OC(=O)NC1CCCN(C(=O)CCc2c(-c3ccc(F)cc3)[nH]c3ccc(F)cc23)C1 (centres unmarked) [Compound 66] | > 1000
44 | Cc1ccc(CNC(=O)CCc2c(-c3ccc(F)cc3)[nH]c3c(F)cc(F)cc23)o1 [Compound 177] | > 1000
45 | O=C(CCc1c(-c2ccc(F)cc2)[nH]c2c(F)cc(F)cc12)NC1(C(F)(F)F)CC1 [Compound 129] | > 1000
46 | CC(NC(=O)CCc1c(-c2ccc(F)cc2)[nH]c2c(F)cc(F)cc12)C(F)(F)F (racemic) [Compound 115] | 250 to 1000
47 | O=C(CCc1c(-c2ccc(F)cc2)[nH]c2ccc(F)cc12)NCC1(O)CCC1 [Compound 64] | > 1000
48 | CC(=O)NCCCc1c(-c2ccc(F)cc2)[nH]c2c(Cl)cccc12 [Compound 508, N-[3-[7-chloro-2-(4-fluorophenyl)-1H-indol-3-yl]propyl]acetamide] | 250 to 1000
49 | O=C(CCc1c(-c2ccc(F)cc2)[nH]c2c(F)cc(F)cc12)N[C@H](CO)C(F)(F)F [Compound 128] | 250 to 1000
50 | CON(C)C(=O)CCc1c(-c2ccc(F)cc2)[nH]c2ccccc12 [Compound 237] | > 1000
